From patent EP4563573A1, “COMPOUND, AND PREPARATION METHOD THEREFOR AND USE THEREOF IN PREPARATION OF SEH INHIBITOR AND PPARS AGONIST” (Shenyang Pharmaceutical University, priority 2023, dated 2024)
Read-outs that look alike come from different tables or passages of the source.

Columns and labels:
PPARγ = molecular target: T1, PPARγ (Homo sapiens, UniProt P37231); assay: PPARγ agonist activity test (luciferase reporter gene); assay type: cell-based
T1 sequence (P37231 204-505): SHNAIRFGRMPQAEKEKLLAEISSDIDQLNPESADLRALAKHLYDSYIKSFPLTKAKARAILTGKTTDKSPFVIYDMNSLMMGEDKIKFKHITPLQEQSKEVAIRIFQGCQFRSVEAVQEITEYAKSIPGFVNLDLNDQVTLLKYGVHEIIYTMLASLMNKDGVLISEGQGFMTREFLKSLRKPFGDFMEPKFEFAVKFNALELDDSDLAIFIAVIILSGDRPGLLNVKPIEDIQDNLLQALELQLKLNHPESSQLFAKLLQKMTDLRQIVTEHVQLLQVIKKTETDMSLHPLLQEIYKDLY
Excerpt: • 1. PPARγ agonist activity test Detection principle: when pM-hPPAR binds to the appropriate ligand, and is activated and binds to the GAL4DNA binding site in the plasmid pB4-RES-tk-luc, thereby initiating the expression of the downstream luciferase reporter gene. The amount of luciferase is detected to determine whether the compound to be tested is a PPAR agonist. • 2.

[1] = Pharmacokinetics after intravenous and oral administration
Experimental: Blood levels were measured within 8 hours after oral administration. […] Table 7 PK of SP-B07 after intravenous and oral administration in rats (n=3)

murine sEH (MsEH) = molecular target: T2, murine sEH (MsEH) (Mus musculus, UniProt P34914); assay: biochemical
T2 sequence (P34914 1-554): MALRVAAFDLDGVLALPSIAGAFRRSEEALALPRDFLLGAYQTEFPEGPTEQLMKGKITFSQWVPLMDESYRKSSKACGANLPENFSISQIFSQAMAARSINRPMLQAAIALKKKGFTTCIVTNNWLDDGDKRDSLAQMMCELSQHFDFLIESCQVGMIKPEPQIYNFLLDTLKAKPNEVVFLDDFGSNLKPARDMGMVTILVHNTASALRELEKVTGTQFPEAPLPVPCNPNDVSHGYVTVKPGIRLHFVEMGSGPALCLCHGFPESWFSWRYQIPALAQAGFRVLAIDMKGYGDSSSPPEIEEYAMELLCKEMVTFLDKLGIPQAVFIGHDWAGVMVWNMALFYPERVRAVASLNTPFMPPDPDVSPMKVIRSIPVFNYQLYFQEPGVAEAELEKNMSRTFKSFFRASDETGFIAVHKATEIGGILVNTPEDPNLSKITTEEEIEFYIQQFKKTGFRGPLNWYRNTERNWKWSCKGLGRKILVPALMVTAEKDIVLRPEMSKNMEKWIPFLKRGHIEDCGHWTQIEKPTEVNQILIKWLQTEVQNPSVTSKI
Experimental: (§2) Detection principle: a specific substrate, (3-phenyl-oxy)-acetic acid cyano-(6-methoxy-naphthalen-2-yl) methyl ester, namely PHOME, is non-fluorescent but can be hydrolyzed under the action of sEH enzyme to generate a product 6-methoxy-2-naphthaldehyde. […] Based on the above principle, the inhibition rates of samples with different concentrations were calculated compared with the positive control group. The IC50 value of the compound was calculated based on the inhibition rate and concentration using SPSS 20 software.
(§3) PHOME solution: 0.79 mg PHOME was dissolved in 106 µL DMSO to obtain a 20 mM PHOME solution, which was diluted to 1/3 mM with Tris-HCl buffer when used.
(§4) sEH solution: sEH (5 mg/mL) stock solution was stored in a -80°C refrigerator and diluted to 4 µg/mL with 25 mM Tris-HCl buffer when used.
(§5) A sample powder to be tested was dissolved in DMSO to a 20 mM solution, stored in a - 20°C refrigerator for later use, and diluted with Tris-HCl buffer to the corresponding concentration when used.
(§6) Experimental design: solvent group, 100% activity group (A), inhibitor group (B), positive control group (C), as shown in Table 1.
(§7) Three replicate wells were set for each sample, and the average of the three replicate wells was the fluorescence value (F) of the compound to be tested. […] The IC50 value of the compound was calculated based on the inhibition rate and concentration using SPSS 20 software.
(§8) The activity of the compounds was evaluated using a biochemical method with [cyano-(6-methoxynaphthalen-2-yl)methyl] 2-(3-phenyloxiran-2-yl)acetate (PHOME) as a substrate using recombinant human sEH (HsEH) and murine sEH (MsEH).

[2] = Stability of liver microsomes; conditions: for Average concentration in microsomal buffer: Rat; for half-life: rat, microsomes
Excerpt: Table 5 Average concentration of SP-B07 in microsomal buffer at different time points (ng/mL)

[3] = test system: CFA-induced AIA mouse model; assay: CFA-induced AIA mouse model, intraperitoneal injection; assay type: in vivo; conditions: female KM mice, compared with celecoxib-10 mg/kg
Experimental: (§1) The pain threshold of AIA mice was tested by the hot plate method. […] A curve of the increase in pain threshold over time was plotted (panel (B) in FIG. 10), and the AUC value of the percentage increase in pain threshold was obtained (panel (C) in FIG. 10). […] Finally, the thickness of the paws of the AIA mouse model at different time points after compound injection was evaluated and compared with the thickness of the mouse paws before modeling, and the swelling reduction rate of the mouse paws was calculated.
as §1, with “11),” for “10),”, “11).” for “10).”

[4] = test system: CD60 diet + streptozotocin-induced diabetes; assay: CD60 feed + streptozotocin-induced diabetes model; assay type: in vivo, male C57BL/6 mice; conditions: SP compounds 30 and 90 mg/kg; pioglitazone 3 mg/kg
Excerpt: Diabetes is a chronic metabolic disease characterized by elevated blood glucose, and its incidence has been increasing over the past few decades. There is no desirable therapeutic drug at present, and the research on drugs for the treatment of diabetes and its related complications such as diabetic pain is highly urgent. […] Compared with the Control group, ****P<0.0001, ***P<0.001, **P<0.01 and *P<0.05.

[5] = molecular target: T3, recombinant human sEH (HsEH) (Homo sapiens, UniProt P34913)
T3 sequence (P34913 1-555): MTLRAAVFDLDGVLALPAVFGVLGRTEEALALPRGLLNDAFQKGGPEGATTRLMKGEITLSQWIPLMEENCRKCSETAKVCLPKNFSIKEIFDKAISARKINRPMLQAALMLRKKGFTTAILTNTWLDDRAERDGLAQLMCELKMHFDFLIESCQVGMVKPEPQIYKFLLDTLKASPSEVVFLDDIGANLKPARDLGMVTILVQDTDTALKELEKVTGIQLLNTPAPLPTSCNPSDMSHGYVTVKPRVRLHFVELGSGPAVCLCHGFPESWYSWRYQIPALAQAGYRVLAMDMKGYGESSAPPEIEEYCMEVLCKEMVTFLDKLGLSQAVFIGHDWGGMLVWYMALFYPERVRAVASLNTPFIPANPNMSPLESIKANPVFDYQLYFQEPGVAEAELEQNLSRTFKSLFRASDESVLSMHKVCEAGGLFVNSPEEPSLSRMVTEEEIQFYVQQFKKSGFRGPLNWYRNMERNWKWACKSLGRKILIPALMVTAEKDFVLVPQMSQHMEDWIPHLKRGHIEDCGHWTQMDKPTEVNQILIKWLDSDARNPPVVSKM
Experimental: as §2, §3, §4, §5, §6, §7, §8

LPS-induced sepsis model = assay: LPS-induced sepsis model; assay type: in vivo, Male C57BL/6 mice; conditions: LPS 25 mg/kg i.p., administration 4 h after modeling, twice at 8 h interval, n=7
Experimental: The drug was administered twice, with an interval of 8 h between administrations.

[6] = Plasma protein binding rate (equilibrium dialysis); conditions: rat
Experimental: The plasma protein binding rate (%PPB) of SD rats was measured by classical equilibrium dialysis apparatus.

[7] = test system: CFA-induced AIA mouse model; conditions: C57BL/6 mice, oral gavage
[8] = test system: L-arginine-induced acute pancreatitis model; conditions: 5 mg/kg, n=5
Excerpt: Pathological changes were studied on H&E stained pancreatic sections (FIG. 17).
Specifically, panel (A) represents edema, panel (B) represents inflammatory cells (mononuclear and polymorphonuclear cells), panel (C) represents parenchymal atrophy, and panel (D) represents the total score (edema, mononuclear cell, polymorphonuclear cell, and parenchymal atrophy) (n=5 for each group) *p<0.05, **p<0.01 vs Mod.

[9] = test system: CFA-induced rheumatoid arthritis model
Experimental: Except for the normal group, the animals in the other groups were injected with 25 µL/mouse of CFA at the bottom of right feet. Different drugs were prepared with pure water to the corresponding concentrations before administration. 30 min after modeling, different test substances were administrated to the animals in each group by oral gavage at 20 mL/kg, 1 time on the same day. The normal control group and the model control group were given the same volume of pure water. […] On the 20th day after modeling, all model animals were regrouped according to the joint index score and administrated with 20 mL/kg by oral gavage 1 time daily for consecutive 7 days. The joint index score of each group was determined on the 3rd and 7th days after administration, and the pain threshold of the animals was tested with a hot plate instrument after the last administration.
The significant figures of the test data were rounded off and statistical analysis was conducted in accordance with SOP. The software used for statistics was SPSS22.0. Measurement data were expressed as Mean ± standard deviation (x ± s), and Leven's test was used to test normality and homogeneity of variance. If there was no statistical significance (P>0.05), statistical analysis was done using one-factor ANOVA. If ANOVA was statistically significant (P≤0.05), LSD test (parametric method) was used for comparative analysis. If variance was unequal (P≤0.05), the Kruskal-Wallis test was used. If the Kruskal-Wallis test was statistically significant (P≤0.05), Dunnett's Test (nonparametric method) was used for comparative analysis.

chronic granuloma model = conditions: rats, 20 mg/kg oral gavage once a day for 7 days (medium-dose; celecoxib group)
Experimental: After the animals were anesthetized by isoflurane inhalation, cotton balls of about 50 mg were buried in the groin of the rats on both sides. The surgical procedure was strictly conducted aseptically. Penicillin was injected intraperitoneally for anti-inflammatory treatment after surgery. Before administration, different drugs were prepared into a concentration of 0.5 mg/mL with pure water in each group, and different test substances were administered by oral gavage at 10 mL/kg, 1 time a day for consecutive 7 days, while the model control group was administrated with an equal volume of pure water. After the last administration, the mice were anesthetized by isoflurane inhalation and then bled, and the cotton ball granuloma was removed and weighed to calculate the degree of swelling (wet weight of cotton ball granuloma - dry weight of cotton ball).
The significant figures of the test data were rounded off and statistical analysis was conducted in accordance with SOP. The software used for statistics was SPSS22.0. Measurement data were expressed as Mean ± standard deviation (x ± s), and Leven's test was used to test normality and homogeneity of variance. If there was no statistical significance (P>0.05), statistical analysis was done using one-factor ANOVA. If ANOVA was statistically significant (P≤0.05), LSD test (parametric method) was used for comparative analysis. […]

[10] = 30 mg/kg oral gavage (medium-dose; celecoxib group), 0.5 h after administration
[11] = 30 mg/kg oral gavage (medium-dose; celecoxib group), 2 h after administration
[12] = 30 mg/kg oral gavage (medium-dose; celecoxib group), 4 h after administration

O=C(Nc1ccc(OC(F)(F)F)c(F)c1)NC1CCC(Oc2ccc(C=C3SC(=O)NC3=O)cc2)CC1 (centres unmarked) [SP-B07, 1-((1r,4r)-4-{4-[(E)-(2,4-dioxothiazolidin-5-ylidene)methyl]phenoxy}cyclohexyl)-3-[3-fluoro-4-(trifluoromethoxy)phenyl]urea]
EC50 (PPARγ): 1430 nM | PPARγ (compared with Rosiglitazone, %) (PPARγ; relative to Rosiglitazone): 19.3% | AUC(0-inf) ([1]; rat, in vivo, iv, 10 mg/kg): 16.9 µM·h | AUC(0-t) at 8 h ([1]; rat, in vivo, iv, 10 mg/kg): 14.1 µM·h | Cmax ([1]; rat, in vivo, iv, 10 mg/kg): 3290 nM | Tmax ([1]; rat, in vivo, iv, 10 mg/kg): 4.98 min | Vd ([1]; rat, in vivo, iv, 10 mg/kg): 3.71 L/kg | clearance ([1]; rat, in vivo, iv, 10 mg/kg): 13.2 mL/min/kg | half-life ([1]; rat, in vivo, iv, 10 mg/kg, t1/2, rats, i.v. 10 mg/kg): 115 min | AUC(0-inf) ([1]; rat, in vivo, po, 50 mg/kg): 17.7 µM·h | AUC(0-t) at 8 h ([1]; rat, in vivo, po, 50 mg/kg): 13.8 µM·h | Cmax ([1]; rat, in vivo, po, 50 mg/kg): 1140 nM | Tmax ([1]; rat, in vivo, po, 50 mg/kg): 30 min | bioavailability ([1]; rat, in vivo, po, 50 mg/kg): 19.5% | time at which maximum concentration was reached after intravenous injection ([1]; rats, i.v. 10 mg/kg): 2 min | t1/2 ([1]; rats, i.v. 10 mg/kg, 10 mg/kg): 3.26 h | IC50 (murine sEH (MsEH)): 0.42 nM | Average concentration in microsomal buffer ([2]; 0 min): 100 ng/mL | Average concentration in microsomal buffer ([2]; 10 min): 86.26 ng/mL | Average concentration in microsomal buffer ([2]; 60 min): 58.82 ng/mL | Average concentration in microsomal buffer ([2]; 120 min): 57.01 ng/mL | Average concentration in microsomal buffer ([2]; 240 min): 55.61 ng/mL | Average concentration in microsomal buffer ([2]; 360 min): 52.33 ng/mL | Average concentration in microsomal buffer ([2]; 720 min): 43.73 ng/mL | half-life ([2]; half-life (t1/2) in rat liver microsomes, rat liver microsomes): 330 min | half-life ([2]; t1/2, rat liver microsomes, table): 330 min | analgesic effect (percentage increase in pain threshold, hot plate method) [3]: better than that of celecoxib | detumescence rate on mouse paws (swelling reduction rate) [3]: superior to celecoxib | lowering blood glucose and improving diabetic neuropathic pain [4]: effective | IC50 [5]: 0.06 nM | increase of the survival rate (LPS-induced sepsis model): 42.8% | fraction unbound [6]: 0.0471

Cc1ccc(-c2cc(C(F)(F)F)nn2-c2ccc(S(N)(=O)=O)cc2)cc1 [Celecoxib, celecoxib]
time after administration at which the pain threshold began to rise [7]: 30 min | pancreatic injury histological score [8]: 3.50±1.80 | Pain threshold in acute inflammatory state ([9]; 30 mg/kg group (medium-dose; celecoxib group), Before administration): 20.7±4.2 | Pain threshold in chronic inflammatory state ([9]; 30 mg/kg oral gavage (medium-dose; celecoxib group), once daily for 7 days, End of administration): 13.7±4.6 | Acute pain threshold increase rate of mice [9, 10]: -35.2±29.8% | Pain threshold in acute inflammatory state [9, 10]: 13.2±6.3 | Acute pain threshold increase rate of mice ([9]; 30 mg/kg oral gavage (medium-dose; celecoxib group), 1 h after administration): -52.3±55.5% | Acute pain threshold increase rate of mice [9, 11]: 34.52±54.1 % | Pain threshold in acute inflammatory state [9, 11]: 23.9±5.3 | Acute pain threshold increase rate of mice [9, 12]: -11.6±32.6 % | Pain threshold in acute inflammatory state [9, 12]: 18.7±6.0 | Swelling degree (chronic granuloma model): 0.9904±0.12++
